The series is described as follows: LogP (Table 1). The class given is physicochemical.
In the case of `CCc1nn(C)c(F)c1C(=S)N(Cc1ccc(C(F)(F)F)cc1Cl)C1CC1` [Compound 28], the LogP turned out to be 4.54. In the case of `Cc1oc(C(C)(C)C)cc1C(=S)N(Cc1ccccc1I)C1CC1` [Compound 54] it was 5.95; in that of `Cn1cc(C(=S)N(Cc2c(Cl)cccc2C(F)(F)F)C2CC2)c(Cl)n1` [Compound 50], 3.83; in that of `Cn1cc(C(=S)N(Cc2cc(Cl)ccc2Br)C2CC2)c(C(F)F)n1` [Compound 42], 3.89. In the case of `CCCc1nn(C)cc1C(=S)N(C1CC1)C(C)c1ccc(Cl)cc1Cl` (racemic) [Compound 56] it was 4.39; in that of `Cn1cc(C(=S)N(Cc2c(Cl)cc(Cl)cc2Cl)C2CC2)c(Cl)n1` [Compound 52], 4.49; in that of `CCCC(c1ccc(Cl)cc1Cl)N(C(=S)c1c(C)nn(C)c1F)C1CC1` (racemic) [Compound 10], 4.97.

The compound `Cc1nn(C)c(F)c1C(=S)N(Cc1cccc(C(F)(F)F)c1Cl)C1CC1` [Compound 3] displayed a LogP of 3.92. Turning to `Cn1nc(C(=S)N(Cc2c(Cl)cccc2C(F)(F)F)C2CC2)c(C(F)(F)F)n1` [Compound 46], the lipophilicity (LogP) amounted to 4.67.

The compound `Cc1nn(C)c(F)c1C(=S)N(Cc1ccc(-c2ccc(F)c(Cl)c2)cc1F)C1CC1` [Compound 2] returned a LogP of 4.73. Compound `CC(c1cc(Cl)cc(Cl)c1)N(C(=S)c1cn(C)nc1Cl)C1CC1` (racemic) [Compound 49] displayed a LogP of 4.49.

On to `CCc1nn(C)cc1C(=S)N(Cc1ccccc1I)C1CC1` [Compound 53], for which the LogP came out at 3.53.

In the case of `Cc1nn(C)c(F)c1C(=S)N(Cc1ccc(Oc2ccc(Cl)cc2)cc1)C1CC1` [Compound 1], the LogP is given as 4.59. In the case of `Cn1cc(C(=S)N(Cc2ccccc2I)C2CC2)c(Cl)n1` [Compound 51] it was 3.73. In the case of `Cc1nn(C)c(F)c1C(=S)N(C1CC1)C(C)c1cc(Cl)ccc1Cl` (racemic) [Compound 19] it was 4.04; in that of `Cn1cc(C(=S)N(Cc2c(Cl)cccc2Cl)C2CC2)c(I)n1` [Compound 55], 3.71; in that of `Cc1nn(C)c(F)c1C(=S)N(Cc1cc(Cl)ccc1Br)C1CC1` [Compound 22], 3.99. In the case of `Cc1nn(C)c(F)c1C(=S)N(Cc1c(Br)cc(Br)cc1Br)C1CC1` [Compound 13] it was 4.86; in that of `Cc1nn(C)c(F)c1C(=S)N(Cc1ccc(Oc2ccccc2)cc1)C1CC1` [Compound 5], 4.06. Take `Cn1cc(C(=S)N(Cc2c(Cl)cccc2C(F)(F)F)C2CC2)c(C(F)F)n1` [Compound 34]: the LogP came out at 3.71. In the case of `Cc1nn(C)c(F)c1C(=S)N(C1CC1)C(C)c1cccc(OCc2ccccc2)c1` (racemic) [Compound 17] it was 4.36. In the case of `Cc1nn(C)c(F)c1C(=S)N(C1CC1)C(C)c1ccc(Cl)cc1Cl` (racemic) [Compound 15] it was 4.14; in that of `Cc1ccc(C(F)(F)F)c(CN(C(=S)c2c(C)nn(C)c2F)C2CC2)c1` [Compound 16], 4.06. On to `Cc1nn(C)c(F)c1C(=S)N(Cc1cc(C(F)(F)F)ccc1Cl)C1CC1` [Compound 9], for which the LogP is recorded as 3.96. In the case of `Cn1cc(C(=S)N(Cc2ccc(C(F)(F)F)cc2Cl)C2CC2)c(C(F)F)n1` [Compound 35] it was 4.09; in that of `Cn1cc(C(=S)N(Cc2cccc(OCc3ccccc3)c2)C2CC2)c(C(F)F)n1` [Compound 33], 4.06; in that of `Cc1nn(C)c(F)c1C(=S)N(Cc1ccc(Oc2ccc(Cl)cc2Cl)cc1)C1CC1` [Compound 18], 5. With `Cc1nn(C)c(F)c1C(=S)N(Cc1ccccc1[Si](C)(C)C)C1CC1` [Compound 7] the figure was 4.64; with `CCc1cccc(CC)c1CN(C(=S)c1c(C)nn(C)c1F)C1CC1` [Compound 4], 4.39. In the case of `Cc1nn(C)c(F)c1C(=S)N(Cc1ccc(C(F)(F)F)cc1Cl)C1CC1` [Compound 8] it was 4.14; in that of `Cc1nn(C)c(F)c1C(=S)N(Cc1ccccc1C1CCCCC1)C1CC1` [Compound 11], 5.17. The compound `Cn1cc(C(=S)N(Cc2c(Cl)cc(OC(F)(F)F)cc2Cl)C2CC2)c(C(F)(F)F)n1` [Compound 45] showed a LogP of 4.9. In the case of `Cn1nc(C(=S)N(Cc2ccc(Cl)cc2Cl)C2CC2)c(C(F)(F)F)n1` [Compound 48] it was 4.95; in that of `Cn1cc(C(=S)N(Cc2ccccc2Br)C2CC2)c(C(F)F)n1` [Compound 31], 3.46. With `Cc1ccc(C(F)(F)F)c(CN(C(=S)c2cn(C)nc2C(F)F)C2CC2)c1` [Compound 32] the figure was 4.01; with `Cc1nn(C)c(F)c1C(=S)N(Cc1ccccc1C(C)C)C1CC1` [Compound 14], 3.89. In the case of `Cn1cc(C(=S)N(Cc2cc(Cl)ccc2C(F)(F)F)C2CC2)c(C(F)F)n1` [Compound 36] it was 4.01. `Cn1nc(C(=S)N(Cc2cc(Cl)ccc2C(F)(F)F)C2CC2)c(C(F)(F)F)n1` [Compound 47] yielded a LogP of 4.94. `Cn1cc(C(=S)N(Cc2cc3c(cc2Cl)OCO3)C2CC2)c(C(F)(F)F)c1` [Compound 44] registered a LogP of 4.01. In the case of `Cn1cc(C(=S)N(Cc2ccccc2[Si](C)(C)C)C2CC2)c(C(F)F)n1` [Compound 37] it was 4.49.

`Cc1nn(C)c(F)c1C(=S)N(Cc1c(Cl)cc(Cl)cc1Cl)C1CC1` [Compound 6] registered a LogP of 4.42. In the case of `Cc1nn(C)c(F)c1C(=S)N(Cc1ccccc1I)C1CC1` [Compound 12] it was 3.68.

These data come from US8410157B2, “Fungicidal N-cycloalkyl-benzyl-thiocarboxamides or N-cycloalkyl-benzyl-N′-substituted-amidine derivatives” (Bayer Cropscience AG, priority 2007, dated 2013).
